Usually IC50 stands for the concentration at which inhibition is half-maximal.

The target in the assay is T1, human recombinant CRF-1 receptor (Homo sapiens, UniProt P34998).
T1 construct: expressed in transfected cells; host or cells: CHO cells (G418-selected)
T1 sequence (P34998 24-415): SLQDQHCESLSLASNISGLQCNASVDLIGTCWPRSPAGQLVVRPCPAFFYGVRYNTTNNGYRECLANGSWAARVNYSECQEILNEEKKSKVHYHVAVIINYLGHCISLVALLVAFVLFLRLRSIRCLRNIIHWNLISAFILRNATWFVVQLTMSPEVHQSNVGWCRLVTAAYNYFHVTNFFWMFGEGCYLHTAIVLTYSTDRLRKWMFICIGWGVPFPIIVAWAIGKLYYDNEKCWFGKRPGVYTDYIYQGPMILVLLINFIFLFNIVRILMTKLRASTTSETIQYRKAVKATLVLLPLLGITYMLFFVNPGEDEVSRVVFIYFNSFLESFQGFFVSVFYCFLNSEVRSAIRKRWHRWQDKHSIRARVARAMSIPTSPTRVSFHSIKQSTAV
The experiment in a line: CRF-1 receptor antagonism, HTRF cAMP assay in CHO cells in the presence of 1 nM CRF. It counts as cell-based. Conditions: CHO cells expressing human recombinant CRF-1; inhibition of the effect of 1 nM CRF on cAMP. The protocol: The CRF-1 or CRF-2α receptor antagonistic activity of the agents of the invention has been determined in vitro in the following assay:
Chinese hamster ovary (CHO) cells expressing either the human recombinant CRF-1 or CRF-2a receptors (Chen et al., Proc Natl Acad Sci USA 90, 8967-8971, 1993; Liaw et al., Endocrinology 137, 72-77, 1996) are propagated in Dulbecco's modified Eagle medium supplemented with 10% foetal calf serum, non-essential amino acids, 100 U/ml penicillin, 100 mg/l streptomycin and 1 g/l geneticin (G418). For cyclic AMP determinations the Homogeneous Time-Resolved Fluoresce (HTRF) cAMP dynamic 2 kit (Cisbio International, France) was used as per manufacturers' instructions. CHO cells, previously cryopreserved, were thawed, centrifuged for 7 mins at 1200 rpm and resuspended in serum free media, then pipetted out onto clear bottomed black tissue culture treated 384-well microtitre plates (Corning Inc, US) at 2,000 cells per well. Compounds of the invention, prepared in DMSO, and subsequently diluted 50 fold in assay buffer (1× Hanks balanced salt solution, 0.2% (w/v) bovine serum albumin, 1.7 mM isobutylmethylxanthine and 10 mM Hepes, pH 7.4) are then added onto the cell containing plate where a further 2 fold dilution is performed and incubated for 15 min. Following incubation, buffer containing a 5 times final concentration of agonist is added to the plate and incubated for 30 min. Finally, d2 dye labelled cAMP and cryptate labeled anti-cAMP antibody, both made in lysis buffer, are added to the plate followed by a settling period of 1 hour. During the settling period cAMP produced by the cells competes with the d2 labelled cAMP for the anti-cAMP cryptate. The plate is read on the Pherastar (BMG, Germany). Increasing levels of endogenous cAMP produced by cells can be followed by a decrease of fluorescent signal and vice versa. Values represented by a change in arbitrary fluorescence units are converted into cAMP concentrations by use of a standard curve the reagents for which are supplied with the kit. Antagonist dose response curves (1 nM-30 μM) are constructed in the presence of 1 nM CRF. IC50 values of antagonists are calculated by fitting the percent inhibition of the effect of CRF by increasing concentrations of the antagonists. The fit is performed using the nonlinear logistic function of the Activitybase software package v 5.4.5.27 (IDBS, UK).
As for `CCc1[nH]nc(NC[C@H]2CC[C@H](NC(=O)c3cc(C(F)(F)F)ccc3Cl)CC2)c1C` [Example 19.117, Trans-2-Chloro-N-{4-[(5-ethyl-4-methyl-1H-pyrazol-3-ylamino)-methyl]-cyclohexyl}-5-trifluoromethyl-benzamide], the IC50 worked out at 0.043 µM.
In the case of `Cc1ncc(Cl)cc1C(=O)N[C@H]1CC[C@H](CNc2n[nH]c3c2CCCC3)CC1` [Example 19.55, Trans-5-chloro-2-methyl-N-(4-((4,5,6,7-tetrahydro-1H-indazol-3-ylamino)methyl)cyclohexyl) nicotinamide] it was 0.143 µM.
Then `Cc1cc(NC[C@H]2CC[C@H](NC(=O)c3cc(Cl)cnc3C)CC2)ncc1Cl` [Example 19.83, Trans-5-chloro-N-(4-((5-chloro-4-methylpyridin-2-ylamino)methyl)cyclohexyl)-2-methyl-nicotinamide], with 0.038 µM; and `COc1ccc2c(NC[C@H]3CC[C@H](NC(=O)c4cc(C(F)(F)F)ccc4Cl)CC3)n[nH]c2c1` [Example 19.68, Trans-2-chloro-N-(4-((6-methoxy-1H-indazol-3-ylamino)methyl)cyclohexyl)-5-(trifluoromethyl) benzamide], with 0.032 µM.
With `O=C(N[C@H]1CC[C@H](CNc2ccccc2Cl)CC1)c1cc(C(F)(F)F)ccc1Cl` [Example 2.26, Trans-2-Chloro-N-{4-[(2-chloro-phenylamino)-methyl]-cyclohexyl}-5-trifluoromethyl-benzamide], the IC50 was found to be 0.063 µM.
On to `O=C(O)c1ccc(NC[C@H]2CC[C@H](NC(=O)c3cc(C(F)(F)F)ccc3Cl)CC2)nc1` [Example 1.33, Trans-6-{[4-(2-Chloro-5-trifluoromethyl-benzoylamino)-cyclohexylmethyl]-amino}-nicotinic acid], for which the IC50 was found to be 6.42 µM.
Then `Cc1ncc(Cl)cc1C(=O)N[C@H]1CC[C@H](CNc2nc(C)c(C)s2)CC1` [Example 5.14, Trans-5-Chloro-N-{4-[(4,5-dimethyl-thiazol-2-ylamino)-methyl]-cyclohexyl}-2-methyl-nicotinamide], with 0.066 µM.
Then `CCCc1cc(NC[C@H]2CC[C@H](NC(=O)c3cc(C(F)(F)F)ccc3Cl)CC2)n[nH]1` [Example 4.15, Trans-2-Chloro-N-{4-[(5-propyl-1H-pyrazol-3-ylamino)-methyl]-cyclohexyl}-5-trifluoromethyl-benzamide], with 0.061 µM; and `O=C(N[C@H]1CC[C@H](CNc2cncc(F)c2)CC1)c1cc(C(F)(F)F)ccc1Cl` [Example 19.1, Trans-2-chloro-N-(4-((5-fluoropyridin-3-ylamino)methyl)cyclohexyl)-5-(trifluoromethyl) benzamide], with 0.026 µM; and `COc1ncc(C)cc1NC[C@H]1CC[C@H](NC(=O)c2cc(C(F)(F)F)ccc2Cl)CC1` [Example 19.56, Trans-2-chloro-N-(4-((2-methoxy-5-methylpyridin-3-ylamino)methyl)cyclohexyl)-5-(trifluoromethyl) benzamide], with 0.084 µM.
With `O=C(N[C@H]1CC[C@H](CNc2n[nH]cc2-c2ccccc2)CC1)c1cc(C(F)(F)F)ccc1Cl` [Example 19.94, Trans-2-chloro-N-(4-((4-phenyl-1H-pyrazol-3-ylamino)methyl)cyclohexyl)-5-(trifluoromethyl) benzamide], the IC50 came to 0.059 µM.
In the case of `Cn1cc(-c2ccccc2)c(NC[C@H]2CC[C@H](NC(=O)c3cc(C(F)(F)F)ccc3Cl)CC2)n1` [Example 19.101, Trans-2-Chloro-N-{4-[(1-methyl-4-phenyl-1H-pyrazol-3-ylamino)-methyl]-cyclohexyl}-5-trifluoromethyl-benzamide] it was 0.069 µM; in that of `Cc1c(NC[C@H]2CC[C@H](NC(=O)c3cc(C(F)(F)F)ccc3Cl)CC2)n[nH]c1-c1ccccc1` [Example 19.79, Trans-2-chloro-N-(4-((4-methyl-5-phenyl-1H-pyrazol-3-ylamino)methyl)cyclohexyl)-5-(trifluoromethyl) benzamide], 0.037 µM; in that of `Cc1ncc(Cl)cc1C(=O)N[C@H]1CC[C@H](Cn2nc(C)c(Cl)c2C)CC1` [Example 17, Trans-5-Chloro-N-[4-(4-chloro-3,5-dimethyl-pyrazol-1-ylmethyl)-cyclohexyl]-2-methyl-nicotinamide], 0.07 µM.
In the case of `CCc1cncc(NC[C@H]2CC[C@H](NC(=O)c3cc(C(F)(F)F)ccc3Cl)CC2)c1` [Example 19.53, Trans-2-chloro-N-(4-((5-ethylpyridin-3-ylamino)methyl)cyclohexyl)-5-(trifluoromethyl) benzamide] it was 0.028 µM; in that of `CN(Cc1cc(-c2ccccc2)n[nH]1)C[C@H]1CC[C@H](NC(=O)c2cc(Cl)ccc2Cl)CC1` [Example 11, Trans-2,5-Dichloro-N-(4-{[methyl-(5-phenyl-2H-pyrazol-3-ylmethyl)amino]-methyl}-cyclohexyl)-benzamide], 0.174 µM; in that of `Cc1ncc(Cl)cc1NC[C@H]1CC[C@H](NC(=O)c2cc(C(F)(F)F)ccc2Cl)CC1` [Example 19.73, Trans-2-chloro-N-(4-((5-chloro-2-methylpyridin-3-ylamino)methyl)cyclohexyl)-5-(trifluoromethyl) benzamide], 0.019 µM.
Turning to `O=C(N[C@H]1CC[C@H](CNc2ccccc2)CC1)c1cccc(Cl)c1` [Example 12, Trans-3-Chloro-N-(4-phenylaminomethyl-cyclohexyl)-benzamide], the IC50 came out at 0.137 µM.
Then `Cc1cc(NC[C@H]2CC[C@H](NC(=O)c3cc(C(F)(F)F)ccc3Cl)CC2)ncc1F` [Example 19.26, Trans-2-chloro-N-(4-((5-fluoro-4-methylpyridin-2-ylamino)methyl)cyclohexyl)-5-(trifluoromethyl) benzamide], with 0.013 µM; and `Cc1cnc(NC[C@H]2CC[C@H](NC(=O)c3cc(C(F)(F)F)ccc3Cl)CC2)s1` [Example 2.5, Trans-2-Chloro-N-{4-[(5-methyl-thiazol-2-ylamino)-methyl]-cyclohexyl}-5-trifluoromethyl-benzamide], with 0.036 µM; and `Cc1n[nH]c(NC[C@H]2CC[C@H](NC(=O)c3cc(C(F)(F)F)ccc3Cl)CC2)c1-c1ccccc1` [Example 19.71, Trans-2-chloro-N-(4-((3-methyl-4-phenyl-1H-pyrazol-5-ylamino)methyl)cyclohexyl)-5-(trifluoromethyl) benzamide], with 0.14 µM.
As for `O=C(N[C@H]1CC[C@H](CNc2cccc(F)c2)CC1)c1cc(C(F)(F)F)ccc1Cl` [Example 9, Trans-2-Chloro-N-{4-[(3-fluoro-phenylamino)-methyl]-cyclohexyl}-5-trifluoromethyl-benzamide], the IC50 came out at 0.05 µM.
In the case of `O=C(N[C@H]1CC[C@H](Cn2cc3ccccc3n2)CC1)c1cc(C(F)(F)F)ccc1Cl` [Example 21.2, 2-Chloro-N-(4-indazol-2-ylmethyl-cyclohexyl)-5-trifluorometnyl-benzamide] it was 0.338 µM; in that of `Cc1cc(C)n(C[C@H]2CC[C@H](NC(=O)c3cc(C(F)(F)F)ccc3Cl)CC2)n1` [Example 7, Trans-2-chloro-N-[4-(3,5-dimethyl-pyrazol-1-ylmethyl)-cyclohexyl]-5-trifluoromethyl-benzamide], 0.022 µM; in that of `Cc1cccc(NC[C@H]2CC[C@H](NC(=O)c3cc(C(F)(F)F)ccc3Cl)CC2)n1` [Example 2.9, Trans-2-Chloro-N-{4-[(6-methyl-pyridin-2-ylamino)-methyl]-cyclohexyl}-5-trifluoromethyl-benzamide], 0.039 µM.
In the case of `O=C(N[C@H]1CC[C@H](CNc2ccc(F)cn2)CC1)c1cc(C(F)(F)F)ccc1Cl` [Example 19.2, Trans-2-chloro-N-(4-((5-fluoropyridin-2-ylamino)methyl)cyclohexyl)-5-(trifluoromethyl) benzamide] it was 0.023 µM.
